Several values for one entry are separate records, joined by “and”; a condition that tells them apart may be missing. Equal values may be shown once. Where no end group is shown, it is not given here.
Assays:
[1] = test system: CXCR7; test: Nanoluc-complementation (NanoBiT) β-Arrestin2 recruitment to CXCR7; format: cell-based, human; settings: HEK293T, n = 4 each group
Method: The recruitment assay was performed based on Nano-luciferase[49]. The vectors (50 ng; gift of Prof. Jong-Ik Hwang, Korea University) encoding human CXCR7, CXCR4, and β-Arrestin2 tagged with SmBiT and LgBiT under Ubiquitin C promoter[49] were transfected into HEK293T cells in a 96-well clear bottom culture plate using Lipofectamine 2000 according to the manufacturer’s protocol. Cells were washed three times with an assay buffer containing (in mM) 140 NaCl, 2.5 KCl, 10 Glucose, 5 HEPES, 2 CaCl2, and 2 MgSO4, pH 7.4 after 24 h. Cells were then incubated with 5 µM Coelenterazine-h (Promega, S201) in the assay buffer for 30 min in the dark, and luminescence was measured at 35 °C in the Victor Nivo Multimode Plate reader (PerkinElmer). The background luminescence was measured for at least 10 min before the addition of ligands, and signals were monitored for at least 60 min after the application of SHLP2 or recombinant mouse CXCL12 (R&D systems, 460-SD-010/CF). The specificity of SHLP2 β-Arrestin2 recruitment through CXCR7 was also confirmed through the assay with CXCR4. Luminescent signals were collected through a 700 nm-IR filter and data were shown as light counts per each cycle of measurement.

[2] = cited from earlier work
Source text: One of the first MDPs discovered is Humanin, a 24-amino-acid peptide encoded by the mitochondrial 16S ribosomal RNA (rRNA) gene. It was originally identified in 2001 during a screening for neuroprotective factors against Alzheimer’s disease[6],[7]. […] Another MDP called Mito chondrial Open Reading Frame of the 12S rRNA-c (MOTS-c) is encoded by the mitochondrial 12S rRNA gene[9]. MOTS-c is a mitochondria-originated metabolic hormone which ... || In addition to humanin and MOTS-c, a recent study has identified an additional six small humanin-like peptides (SHLP1 to 6) encoded by the 16S rRNA gene of the mtDNA genome. […] However, the mechanism by which SHLP2 affec ...

[3] = test system: adipocytes; settings: in vitro; cited from earlier work
Source text: In addition to humanin and MOTS-c, a recent study has identified an additional six small humanin-like peptides (SHLP1 to 6) encoded by the 16S rRNA gene of the mtDNA genome. […] However, the mechanism by which SHLP2 affec ...

[4] = Dot blot for SHLP2 in CSF after IP injection; format: in vivo, mouse
Method: The immuno-dot blot assay was performed by using the human and mice serum or mouse CSF. 0.2 μm nitrocellulose membranes were activated with ultrapure water (Invitrogen, 10977015), and 2 μL of samples were spotted on a membrane and dried for 30 mins at RT. The membrane was blocked in 5% BSA prepared in 1X Tris Buffered Saline-0.1% Tween 20 (TBST) for 1 h before being overnight incubated with anti-SHLP2 at 4 °C. Membranes were washed 3 times with 1X TBST, then incubated with anti-rabbit IgG (Invitrogen, 31460, 1:3000). The membranes were washed and visualized using the ImageQuant™ LAS 4000 (GE Healthcare Life Science). Blot densitometry was measured using ImageJ software (NIH Image). To quantitate the immuno-dot blot assay results, we prepared controls (total protein level stained by amido black), and subsequently established a calibration figure for each run of the assay.

[5] = molecular target: T1, CXCR7 (Homo sapiens, UniProt P25106); test: PathHunter β-Arrestin recruitment to CXCR7, dose response; format: cell-based; settings: 10-point curve, Hill / four-parameter logistic
T1 construct: host or cells: CHO-K1
T1 sequence (P25106 whole entry): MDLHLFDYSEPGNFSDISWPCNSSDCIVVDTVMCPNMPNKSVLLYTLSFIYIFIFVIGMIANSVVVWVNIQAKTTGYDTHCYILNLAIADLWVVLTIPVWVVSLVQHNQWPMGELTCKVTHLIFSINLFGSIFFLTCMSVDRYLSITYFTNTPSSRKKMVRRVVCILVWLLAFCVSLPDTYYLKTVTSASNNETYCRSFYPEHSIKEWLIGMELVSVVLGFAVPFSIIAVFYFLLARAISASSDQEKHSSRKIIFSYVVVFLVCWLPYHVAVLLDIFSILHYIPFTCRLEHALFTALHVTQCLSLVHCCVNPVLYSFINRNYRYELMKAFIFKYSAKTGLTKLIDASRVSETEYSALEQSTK
T1 sequence (P32121 whole entry partner): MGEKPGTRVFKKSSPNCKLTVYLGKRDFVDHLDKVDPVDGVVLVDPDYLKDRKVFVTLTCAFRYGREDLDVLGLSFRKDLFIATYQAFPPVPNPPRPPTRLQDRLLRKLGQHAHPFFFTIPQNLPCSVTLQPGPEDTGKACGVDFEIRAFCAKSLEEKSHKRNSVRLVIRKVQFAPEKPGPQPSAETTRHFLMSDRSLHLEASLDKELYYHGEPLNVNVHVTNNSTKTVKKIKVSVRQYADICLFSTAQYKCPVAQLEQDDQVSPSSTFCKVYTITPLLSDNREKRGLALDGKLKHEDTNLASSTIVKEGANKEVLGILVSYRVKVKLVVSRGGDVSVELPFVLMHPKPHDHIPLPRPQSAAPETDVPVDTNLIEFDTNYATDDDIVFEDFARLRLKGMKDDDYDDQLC
Method: The GPCR profiling was performed using PathHunter GPCRmax Arrestin recruitment assay with 168 known GPCRs provided by DiscoverX (Eurofins). This assay utilized Chinese Hamster Ovary CHO-K1 cells expressing GPCR tagged with ProLink (PK) and β-Arrestin2 tagged with a deletion mutant of β-galactosidase as an enzyme acceptor. Upon the binding of the ligand to the GPCR, the recruitment of tagged β-Arrestin2 to the GPCR causes the complementation of a functional β-galactosidase, hydrolyzing a chemiluminescence substrate. The assay was performed with known ligands in agonist and antagonist modes, with data presented as: %Activityagonist=100%×MeanRLUSHLP2−MeanRLU(vehiclecontrol)/MeanMAXRLUcontrolligand−MeanRLU(vehiclecontrol) and %Activityantagonist=100%×1−MeanRLUSHLP2−MeanRLU(vehiclecontrol)/MeanMAXRLUcontrolligand−MeanRLU(vehiclecontrol)
The dose response (EC50) was built using a 10-point curve and fit to a Hill Equation.

[6] = test system: POMC neurons expressing hM4Di; test: Patch clamp of hM4Di-expressing POMC neurons on CNO application; format: cell-based, mouse; settings: for Firing rate / Resting membrane potential (RMP): hM4Di-expressing POMC neurons, CNO
Method: Slices were moved to a submerged-type recording chamber with continuous perfusion of carbogenated recording aCSF heated to 31 °C at a flow rate of approximately 2 mL/min. Tested compounds were added through bath perfusion. To block synaptic inputs, the aCSF contained 100 nM tetrodotoxin (TTX citrate; Tocris, 1069), 100 μM picrotoxin (Sigma-Aldrich, P8390), 100 μM D(−)-2-Amino-5-phosphonopentanoic acid (D-AP-V; Tocris, 0106) and 20 μM CNQX (CNQX-disodium; Tocris, 1045). To block ERK1/2 activation or PI3K signaling pathway, 10 µM of PD98059 (Tocris, 1213) or 1 µM of wortmannin (Tocris, 1232) was added to the bath solution for at least 30 min before any measurement. To test the effect of CNO on POMC neurons expressing the DREDD hM4Di receptor, 5 μM of CNO were applied for 1 to 2 min.
POMC or AgRP-expressing neurons in the ARC were identified with a brief exposure to epifluorescence on an upright microscope (Nikon FN1) using a 40X water-immersion objective and differential interference contrast optics. The pipette solution contains (in mM) 127 K-Methanesulfonate, 5 KCl, 10 HEPES, 0.3 EGTA, 4 Mg-ATP, 0.3 Na-GTP, and is of a pH adjusted to 7.3 with KOH and a 288 mOsm/kg osmolality. The patch pipettes have a resistance of 4-6 MΩ when filled with the pipette solution. […] The basal resting membrane potential and firing rate were recorded for around 3 min after breaking in, and bath perfusion of SHLP2 was applied for 3 to 5 min. Neurons were classified as responsive if there was a change in resting membrane potential of at least 2 mV during the period of drug application. The access resistance (Ra) was monitored throughout the experiment, and cells with a Ra of more than 35 MΩ were excluded from the analysis. Data were acquired at 10 kHz, filtered with a lowpass filter at 5 kHz and analyzed offline with Clampfit 10 (Molecular Devices). The calculated liquid junction potential was +9.55 mV and used to correct all data.

[7] = molecular target: CXCR7 tagged with ProLink (PathHunter CHO-K1 cell line) (UniProt P25106)
Chain of CXCR7 tagged with ProLink (PathHunter CHO-K1 cell line) (P25106 whole entry): as the sequence (P25106 whole entry) above

[8] = Angiotensin II-induced water consumption test (Supplementary Fig. 4a); format: in vivo, mouse; settings: After (angiotensin II); individual animals
Method: For intracerebroventricular (ICV) cannulation, mice were anesthetized by intraperitoneal injection (IP) of Zoletil (titelamine/zolazepam 30 mg/kg) and Rompun (xylazine 10 mg/kg), then placed onto a stereotaxic apparatus. After setting the ventricular coordinates, a permanent 26-gauge stainless steel cannula (Plastic one, Inc.) was implanted in the third ventricle (1.8 mm caudal to bregma, and 5.0 mm ventral to the sagittal sinus according to the Paxinos and Franklin’s atlas) and secured to the skull surface using a dental acrylic (Vertex). Mice were individually housed and allowed to recover for at least 1 week. The angiotensin II-induced water consumption test was performed to confirm the position of the ICV cannulation. […] Mice with no angiotensin II-induced thirst behavior were excluded from the experiments.

## Small humanin-like peptide 6 [SHLP6]
[1]
  CXCR7 activation (β-Arrestin2 recruitment) by SHLP1 to 6: but not by SHLP1, 3, 4, 5, or 6

## Mito chondrial Open Reading Frame of the 12S rRNA-c (MRWQEMGYIFYPRKLR; UniProt A0A0C5B5G6 1-16, looked up) [MOTS-c, mitochondrial-derived peptide encoded by the mitochondrial 12S rRNA gene]
[2]
  lifespan: promote lifespan

## Small humanin-like peptide 5 [SHLP5]
[1]
  CXCR7 activation (β-Arrestin2 recruitment) by SHLP1 to 6: but not by SHLP1, 3, 4, 5, or 6

## humanin: 24-amino-acid peptide encoded by the mitochondrial 16S ribosomal RNA gene (MAPRGFSCLLLLTSEIDLPVKRRA; UniProt Q8IVG9 1-24, looked up)
[2]
  lifespan: promote lifespan

## Small humanin-like peptide 3 [SHLP3]
[1]
  CXCR7 activation (β-Arrestin2 recruitment) by SHLP1 to 6: but not by SHLP1, 3, 4, 5, or 6
[3]
  cellular differentiation and insulin sensitivity in adipocytes: enhance cellular differentiation and insulin sensitivity in adipocytes in vitro

## MGVKFFTLSTRFFPSVQRAVPLWTNS [SHLP2, Small humanin-like peptide 2]
[4]; IP injection, individual animals (n = 3)
  SHLP2 in CSF, relative dot blot densitometry: 3.163 and 4.493 and 3.525
[4]; systemic (IP) injection
  SHLP2 detection in CSF: highly detected in the CSF
[5]
  EC50: 970 nM

## C[N+]1([O-])CCN(C2=Nc3cc(Cl)ccc3Nc3ccccc32)CC1 [CNO, Clozapine-N-oxide]
[6]; 5 μM CNO, 1 to 2 min, n = 6 from 2 animals
  effect on POMC neurons expressing hM4Di: induced hyperpolarization of POMC neurons expressing hM4Di
[6]; 5 μM CNO, n = 6 from 2 animals
  resting membrane potential and firing rate of POMC neurons expressing hM4Di: decreases in the resting membrane potentials (h) and firing rates (i)
[6]; replicate 1 of 6
  Firing rate: 0.3384
  Resting membrane potential (RMP): -60.0566
[6]; replicate 2 of 6
  Firing rate: 0
  Resting membrane potential (RMP): -63.8078
[6]; replicate 3 of 6
  Firing rate: 0.1759
  Resting membrane potential (RMP): -77.9333
[6]; replicate 4 of 6
  Firing rate: 0.2189
  Resting membrane potential (RMP): -57.1355
[6]; replicate 5 of 6
  Firing rate: 0.1654
  Resting membrane potential (RMP): -59.3185
[6]; replicate 6 of 6
  Firing rate: 0.2879
  Resting membrane potential (RMP): -55.5068

## Small humanin-like peptide 2 (SHLP2), biotinylated
[7]
  PathHunter β-Arrestin recruitment to CXCR7 (screen of 168 GPCRs, agonist mode): relative agonistic activity of SHLP2 as percent of the known ligand SDF1α/CXCL12 (% of the known ligand SDF1α/CXCL12): 70
  PathHunter β-Arrestin recruitment to CXCR7, dose response to SHLP2 (10-point curve): EC50: 970 nM

## Small humanin-like peptide 4 [SHLP4]
[1]
  CXCR7 activation (β-Arrestin2 recruitment) by SHLP1 to 6: but not by SHLP1, 3, 4, 5, or 6

## Small humanin-like peptide 1 [SHLP1]
[1]
  CXCR7 activation (β-Arrestin2 recruitment) by SHLP1 to 6: but not by SHLP1, 3, 4, 5, or 6

## angiotensin II (DRVYIHPF; Angiotensin-2; UniProt P01019 25-32, looked up) [used in the water consumption test to confirm ICV cannula position]
[8]
  Fig. S4a water intake: 0.37 g and 0.63 g and 0.3 g and 0.21 g

— PMC10356901, “Mitochondria-derived peptide SHLP2 regulates energy homeostasis through the activation of hypothalamic neurons” (Nature Communications, 2023)
